In this experiment the target is T1, hNR2B (Homo sapiens, UniProt Q05586+Q13224).
T1 construct: expressed in transfected cells; host or cells: Xenopus laevis oocytes, cRNA-injected
Briefly: Electrophysiology NMDA receptor experiments: two electrode voltage-clamp in Xenopus laevis oocytes, hNR2B IC50. The note with it: 50 μM glutamate, 30 μM glycine. It counts as cell-based. (In general: Two-electrode voltage clamp is typically applied to oocytes expressing channels or transporters.)

[1] abbreviates: hNR2B activity class, read-out: Activity.
[2] abbreviates: voltage clamp -40 mV, read-out: hNR2B IC50.

SMILES strings stand for the structures. Read-outs that look alike come from different tables or passages of the source.

T1 sequence (Q13224 27-1484, other chains not shown): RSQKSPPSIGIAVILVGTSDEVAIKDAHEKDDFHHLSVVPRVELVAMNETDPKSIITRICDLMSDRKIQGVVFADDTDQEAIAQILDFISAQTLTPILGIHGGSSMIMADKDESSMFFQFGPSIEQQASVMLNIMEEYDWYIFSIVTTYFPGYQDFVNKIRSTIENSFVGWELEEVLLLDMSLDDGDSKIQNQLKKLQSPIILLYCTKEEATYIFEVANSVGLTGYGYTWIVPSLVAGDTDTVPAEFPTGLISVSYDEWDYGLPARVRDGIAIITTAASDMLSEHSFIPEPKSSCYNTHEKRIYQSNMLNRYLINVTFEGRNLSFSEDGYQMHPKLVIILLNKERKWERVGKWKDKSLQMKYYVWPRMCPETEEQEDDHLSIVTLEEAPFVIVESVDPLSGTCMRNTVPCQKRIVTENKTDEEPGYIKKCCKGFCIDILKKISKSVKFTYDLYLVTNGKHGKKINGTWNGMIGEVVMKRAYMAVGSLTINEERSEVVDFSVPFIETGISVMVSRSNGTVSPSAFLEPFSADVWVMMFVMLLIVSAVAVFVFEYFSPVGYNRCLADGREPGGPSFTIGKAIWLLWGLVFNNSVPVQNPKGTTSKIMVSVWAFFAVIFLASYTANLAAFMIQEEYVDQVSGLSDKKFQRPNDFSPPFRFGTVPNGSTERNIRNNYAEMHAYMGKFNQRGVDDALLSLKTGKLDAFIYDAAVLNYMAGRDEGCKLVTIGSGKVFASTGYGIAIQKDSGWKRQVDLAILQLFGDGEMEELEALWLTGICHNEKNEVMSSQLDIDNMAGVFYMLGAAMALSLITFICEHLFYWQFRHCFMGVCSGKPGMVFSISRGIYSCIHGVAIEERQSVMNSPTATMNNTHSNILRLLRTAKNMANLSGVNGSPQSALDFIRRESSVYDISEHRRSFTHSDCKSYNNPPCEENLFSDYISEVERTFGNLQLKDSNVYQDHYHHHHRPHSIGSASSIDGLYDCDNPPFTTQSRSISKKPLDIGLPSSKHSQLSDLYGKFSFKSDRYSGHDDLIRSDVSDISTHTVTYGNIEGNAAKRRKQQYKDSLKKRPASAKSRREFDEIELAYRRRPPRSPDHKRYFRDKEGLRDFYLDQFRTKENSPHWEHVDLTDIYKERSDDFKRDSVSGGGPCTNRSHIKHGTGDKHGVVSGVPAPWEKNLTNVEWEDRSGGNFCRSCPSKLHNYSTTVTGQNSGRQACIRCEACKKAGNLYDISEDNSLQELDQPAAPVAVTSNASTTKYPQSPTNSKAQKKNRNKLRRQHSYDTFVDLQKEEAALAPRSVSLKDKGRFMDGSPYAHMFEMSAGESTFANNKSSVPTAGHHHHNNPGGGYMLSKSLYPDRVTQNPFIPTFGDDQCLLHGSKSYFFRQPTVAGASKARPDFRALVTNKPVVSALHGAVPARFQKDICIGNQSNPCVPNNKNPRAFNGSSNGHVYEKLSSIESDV
Procedure: Stage V and VI oocytes were surgically removed from the ovaries of large, well-fed and healthy Xenopus laevis anesthetized with 3-amino-benzoic acid ethyl ester (3 gm/l). […] Oocytes were then washed in the same solution supplemented with 1.8 mM CaCl2 and maintained in Barth's solution comprised of (in mM): 88 NaCl, 1 KCl, 2.4 NaHCO3, 10 HEPES, 0.82 MgSO4, 0.33 Ca(NO3)2, and 0.91 CaCl2 and supplemented with 100 μg/ml gentamycin, 10 μg/ml streptomycin, and 10 μg/ml penicillin.
Two electrode voltage-clamp recordings were made 2-7 days post-injection. Oocytes were placed in a dual-track plexiglass recording chamber with a single perfusion line that splits in a Y-configuration to perfuse two oocytes. Dual recordings were made at room temperature (23° C.) using two Warner OC725B two-electrode voltage clamp amplifiers, arranged as recommended by the manufacturer. Glass microelectrodes (1-10 Megaohms) were filled with 300 mM KCl (voltage electrode) or 3 M KCl (current electrode). The bath clamps communicated across silver chloride wires placed into each side of the recording chamber, both of which were assumed to be at a reference potential of 0 mV. Oocytes were perfused with a solution comprised of (in mM) 90 NaCl, 1 KCl, 10 HEPES, 10 EDTA and 0.5 BaCl2; pH 7.4, adjusted by addition of NaOH. Oocytes were recorded under voltage clamp at −40 mV. Final concentrations for glutamate and glycine were 50 μM and 30 μM, respectively. […] Dose response curves consisting of four to eight concentrations were obtained in this manner. The baseline leak current at −40 mV was measured before and after recording, and the full recording linearly corrected for any change in leak current. The level of inhibition by applied experimental compounds was expressed as a percent of the initial glutamate response, and averaged together across oocytes from multiple experiments.
For NMDA receptor subtype selectivity experiments human GluN1/GluN2A, GluN1/GluN2C, and GluN1/GluN2D cRNAs were expressed in Xenopus laevis as described above. Here, 10 μM concentrations of the antagonist was perfused with 50 μM glutamate and 30 μM glycine onto the oocyte for two min and the remaining current in the presence of the antagonist was compared to the maximal current obtained with 50 μM glutamate and 30 μM glycine alone (defined as 100%). When IC50 determinations were made against other NMDA receptor subtypes the protocol as described above was followed.

Take `O=c1ccc2cc(OCc3nnc(Nc4ccc(F)c(C(F)F)c4)o3)ccc2[nH]1` [Example 99]: the IC50 under setting [1] was in the range of 0.201 to 1 µM.

For the molecule `O=c1ccc2cc(OCc3nnc(NCc4ccccc4F)o3)ccc2[nH]1` [Example 100], the IC50 under setting [1] fell in the range of 1 to 10 µM.

Turning to `Cc1ccc(Nc2nnc(COc3ccc4[nH]c(=O)ccc4c3)o2)cc1F` [Example 102], the IC50 under setting [1] was below 0.2 µM.

`COc1ccc(Nc2nnc(COc3ccc4[nH]c(=O)ccc4c3)o2)cc1F` [Example 103]: the IC50 under setting [1] was in the range of 0.201 to 1 µM.

`CC(Oc1ccc2[nH]c(=O)ccc2c1)c1nnc(Nc2ccc(Cl)c(Cl)c2)o1` (centres unmarked) [Example 106]: the IC50 under setting [1] was below 0.2 µM.

As to `CC(Oc1ccc2[nH]c(=O)ccc2c1)c1nnc(Nc2ccc(OC(F)F)c(Cl)c2)o1` (centres unmarked) [Example 108], the IC50 under setting [1] was below 0.2 µM.

Regarding `O=C1Nc2ccc(OCc3nnc(Nc4ccc(Cl)c(Cl)c4)o3)cc2CO1` [Example 111], the IC50 under setting [1] was below 0.2 µM.

On to `O=c1[nH]c2ccc(OCc3nnc(NCc4ccc(Cl)c(Cl)c4)o3)cc2[nH]1` [Example 112], for which the IC50 under setting [1] is below 0.2 µM.

On to `O=c1[nH]c2ccc(OCc3nnc(Nc4ccc(Cl)c(Cl)c4)o3)cc2[nH]1` [Example 113], for which, under setting [1], the IC50 is below 0.2 µM.

For `Oc1ccc(OCc2nnc(NCc3ccc(Cl)c(Cl)c3)o2)cc1` [Example 114], the IC50 under setting [1] is below 0.2 µM.

As for `Oc1ccc(OCc2nnc(Nc3ccc(Cl)c(Cl)c3)o2)cc1` [Example 115], under setting [1], the IC50 was below 0.2 µM.

`Oc1cccc(OCc2nnc(Nc3ccc(Cl)c(Cl)c3)o2)c1` [Example 116]: the IC50 under setting [1] lay in the range of 1 to 10 µM.

With `Oc1ccc(OCc2nnc(NCc3ccc(Cl)c(Cl)c3)o2)nn1` [Example 117], the IC50 under setting [1] is above 10 µM.

For `Oc1ccc(OCc2nnc(Nc3ccc(Cl)c(Cl)c3)o2)nn1` [Example 118], the IC50 under setting [1] lay within 1 to 10 µM.

On to `Oc1c(F)cc(OCc2nnc(Nc3ccc(Cl)c(Cl)c3)o2)cc1F` [Example 119], for which the IC50 under setting [1] lay within 0.201 to 1 µM.

On to `Clc1ccc(CNc2nnc(COc3ccc4c(c3)CCCN4)o2)cc1Cl` [Example 120], for which the IC50 under setting [1] is above 10 µM.

Regarding `O=c1cnc2cc(OCc3nnc(Nc4ccc(Cl)c(Cl)c4)o3)ccc2[nH]1` [Example 123], the IC50 under setting [1] was 1 to 10 µM.

As to `O=c1cnc2cc(OCc3nnc(Nc4ccc(C(F)(F)F)cc4)o3)ccc2[nH]1` [Example 124], the IC50 under setting [1] fell in the range of 1 to 10 µM.

Regarding `O=C1COc2cc(OCc3nnc(Nc4ccc(Cl)c(Cl)c4)o3)ccc2N1` [Example 125], the IC50 under setting [1] was 0.201 to 1 µM.

On to `O=C1COc2cc(OCc3nnc(Nc4ccc(OC(F)(F)F)cc4)o3)ccc2N1` [Example 126], for which the IC50 under setting [1] was 0.201 to 1 µM.

With `O=C1COc2cc(OCc3nnc(NCc4ccc(Cl)c(Cl)c4)o3)ccc2N1` [Example 127], the IC50 under setting [1] is 0.201 to 1 µM.

In the case of `Oc1ccc(CCc2nnc(NCc3ccc(Cl)c(Cl)c3)o2)cc1` [Example 128, 4-(2-(5-(3,4-dichlorobenzylamino)-1,3,4-oxadiazol-2-yl)ethyl)phenol], the IC50 under setting [2] turned out to be 0.061 µM.

Consider `O=C1CCc2cc(CCc3nnc(Nc4ccc(Cl)cc4)o3)ccc2N1` [Example 129], for which the IC50 under setting [1] was below 0.2 µM.

Take `O=C1CCc2cc(CCc3nnc(Nc4ccc(C(F)(F)F)cc4)o3)ccc2N1` [Example 130]: the IC50 under setting [1] was below 0.2 µM.

On to `O=C1CCc2cc(CCc3nnc(Nc4ccc(Cl)c(Cl)c4)o3)ccc2N1` [Example 131], for which the IC50 under setting [1] was below 0.2 µM.

As to `O=C1CCc2cc(CCc3nnc(NCc4ccc(Cl)c(Cl)c4)o3)ccc2N1` [Example 132], under setting [1], the IC50 is below 0.2 µM.

`O=C1CCc2cc(CCc3nnc(Nc4ccc(OC(F)F)cc4)o3)ccc2N1` [Example 133]: the IC50 under setting [1] was below 0.2 µM.

With `O=C1CCc2cc(CCc3nnc(Nc4ccc(OC(F)(F)F)cc4)o3)ccc2N1` [Example 134], the IC50 under setting [1] was below 0.2 µM.

For `O=C1CCc2cc(CCc3nnc(Nc4ccc(Cl)c(F)c4)o3)ccc2N1` [Example 135], the IC50 under setting [1] is below 0.2 µM.

As to `O=c1ccc2cc(CCc3nnc(Nc4ccc(Cl)c(Cl)c4)o3)ccc2[nH]1` [Example 136], the IC50 under setting [1] was below 0.2 µM.

In the case of `O=c1ccc2cc(CCc3nnc(Nc4ccc(OC(F)(F)F)c(Cl)c4)o3)ccc2[nH]1` [Example 137], the IC50 under setting [1] is below 0.2 µM.

Turning to `O=c1ccc2cc(CCc3nnc(Nc4ccc(C(F)(F)F)cc4)o3)ccc2[nH]1` [Example 138], under setting [1], the IC50 is below 0.2 µM.

Consider `FC(F)Oc1ccc(Nc2nnc(CCc3ccc4[nH]nc(C(F)(F)F)c4c3)o2)cc1Cl` [Example 142], for which, under setting [2], the IC50 was 4.68 µM.

As to `FC(F)(F)c1n[nH]c2ccc(CCc3nnc(Nc4ccc(Cl)c(Cl)c4)o3)cc12` [Example 143], the IC50 under setting [1] is above 10 µM.

As for `FC(F)(F)c1ccc(Nc2nnc(CCc3ccc4[nH]ncc4c3)o2)cc1` [Example 144], the IC50 under setting [1] was below 0.2 µM.

`Clc1ccc(Nc2nnc(CCCc3ccc4[nH]ncc4c3)o2)cc1Cl` [Example 145]: the IC50 under setting [1] lay within 1 to 10 µM.

Turning to `Fc1cc(Nc2nnc(CCCc3ccc4[nH]ncc4c3)o2)ccc1Cl` [Example 146], the IC50 under setting [2] stood at 0.23 µM.

Regarding `Oc1cccc(Cc2nnc(Nc3ccc(Cl)c(Cl)c3)o2)c1` [Example 147], under setting [1], the IC50 fell in the range of 1 to 10 µM.

Turning to `Oc1cccc(Cc2nnc(NCc3ccc(Cl)c(Cl)c3)o2)c1` [Example 148], the IC50 under setting [1] was above 10 µM.

For `Oc1ccc(Cc2nnc(Nc3ccc(Cl)c(Cl)c3)o2)cc1` [Example 149], under setting [1], the IC50 is 1 to 10 µM.

For the molecule `Oc1ccc(Cc2nnc(NCc3ccc(Cl)c(Cl)c3)o2)cc1` [Example 150], under setting [1], the IC50 was 1 to 10 µM.

In the case of `Oc1ccc(CCc2nnc(Nc3ccc(Cl)c(Cl)c3)o2)cc1` [Example 151], the IC50 under setting [1] was below 0.2 µM.

For `Oc1ccc(CCc2nnc(Nc3ccc(C(F)(F)F)cc3)o2)cc1` [Example 152], the IC50 under setting [2] turned out to be 0.048 µM.

As for `Oc1ccc(CCc2nnc(Nc3ccc(OC(F)(F)F)cc3)o2)cc1` [Example 153], the IC50 under setting [1] is below 0.2 µM.

As to `O=c1ccc2cc(C3CC3c3nnc(Nc4ccc(C(F)(F)F)cc4)o3)ccc2[nH]1` (centres unmarked) [Example 154, 6-(2-(5-((4-(trifluoromethyl)phenyl)amino)-1,3,4-oxadiazol-2-yl)cyclopropyl)quinolin-2(1H)-one], the IC50 under setting [2] was found to be 0.0095 µM.

Consider `O=c1ccc2cc(C3CC3c3nnc(Nc4ccc(OC(F)F)c(Cl)c4)o3)ccc2[nH]1` (centres unmarked) [Example 155], for which the IC50 under setting [1] was below 0.2 µM.

For the molecule `O=C1CCc2cc(OCc3nc(Nc4ccc(Cl)c(Cl)c4)no3)ccc2N1` [Example 156, 6-((3-(3,4-dichlorophenylamino)-1,2,4-oxadiazol-5-yl)methoxy)-3,4-dihydroquinolin-2(1H)-one], the IC50 under setting [2] stood at 0.39 µM.

Regarding `O=c1ccc2cc(OCc3nc(Nc4ccc(C(F)(F)F)c(F)c4)no3)ccc2[nH]1` [Example 157], the IC50 under setting [1] is above 10 µM.

For `O=c1ccc2cc(OCc3nc(Nc4ccc(F)cc4)no3)ccc2[nH]1` [Example 158], the IC50 under setting [1] is above 10 µM.

Consider `O=c1ccc2cc(OCc3nc(Nc4cccc(Cl)c4)no3)ccc2[nH]1` [Example 161], for which the IC50 under setting [1] was above 10 µM.

Turning to `O=c1ccc2cc(OCc3nc(Nc4cc(Cl)cc(Cl)c4)no3)ccc2[nH]1` [Example 164], the IC50 under setting [1] lay in the range of 1 to 10 µM.

Regarding `Cc1ccc(Nc2noc(COc3ccc4[nH]c(=O)ccc4c3)n2)cc1` [Example 165], the IC50 under setting [1] is 1 to 10 µM.

Consider `COc1ccc(Nc2noc(COc3ccc4[nH]c(=O)ccc4c3)n2)cc1F` [Example 166], for which the IC50 under setting [1] was below 0.2 µM.

For `COc1ccc(Nc2noc(COc3ccc4[nH]c(=O)ccc4c3)n2)cc1Cl` [Example 167], the IC50 under setting [2] turned out to be 0.3 µM.

Turning to `O=c1ccc2cc(OCc3nc(Nc4ccc(Cl)c(Cl)c4)no3)ccc2[nH]1` [Example 178], the IC50 under setting [1] lay in the range of 0.201 to 1 µM.

For the molecule `O=C1CCc2cc(OCc3nc(Nc4ccc(OC(F)(F)F)cc4)no3)ccc2N1` [Example 179], the IC50 under setting [1] was 0.201 to 1 µM.

Turning to `O=C1CCc2cc(OCc3nc(Nc4ccc(C(F)(F)F)cc4)no3)ccc2N1` [Example 180], the IC50 under setting [1] lay within 1 to 10 µM.

Turning to `O=c1ccc2cc(OCc3nc(Nc4ccc(C(F)(F)F)cc4)no3)ccc2[nH]1` [Example 181], the IC50 under setting [2] was found to be 0.145 µM.

As for `O=C1CCc2cc(OCc3nc(Nc4ccc(Cl)cc4)no3)ccc2N1` [Example 182], the IC50 under setting [1] lay in the range of 1 to 10 µM.

Regarding `O=c1ccc2cc(OCc3nc(Nc4ccc(Cl)cc4)no3)ccc2[nH]1` [Example 183], the IC50 under setting [1] is 1 to 10 µM.

For `Oc1ccc(OCc2nc(Nc3ccc(Cl)c(Cl)c3)no2)cc1` [Example 184], under setting [1], the IC50 fell in the range of 1 to 10 µM.

Regarding `Oc1ccc(OCc2nc(Nc3ccc(C(F)(F)F)cc3)no2)cc1` [Example 185], under setting [1], the IC50 lay within 1 to 10 µM.

As for `O=C1CCc2cc(OCc3nc(Nc4ccc(OC(F)F)cc4)no3)ccc2N1` [Example 186], under setting [1], the IC50 lay within 0.201 to 1 µM.

For `Clc1ccc(Nc2noc(COc3ccc4[nH]ncc4c3)n2)cc1Cl` [Example 187], under setting [1], the IC50 was above 10 µM.

`FC(F)(F)c1ccc(Nc2noc(COc3ccc4[nH]ncc4c3)n2)cc1` [Example 188]: the IC50 under setting [1] was above 10 µM.

Consider `Clc1ccc(CNc2noc(COc3ccc4[nH]ncc4c3)n2)cc1` [Example 189], for which, under setting [1], the IC50 was 1 to 10 µM.

As to `O=c1ccc2cc(OCc3nc(Nc4ccc(OC(F)F)cc4)no3)ccc2[nH]1` [Example 190], the IC50 under setting [2] stood at 0.168 µM.

As for `O=c1ccc2cc(OCc3nc(Nc4ccc(OC(F)F)c(Cl)c4)no3)ccc2[nH]1` [Example 191], the IC50 under setting [1] is below 0.2 µM.

`O=c1ccc2cc(OCc3nc(Nc4ccc(F)c(Cl)c4)no3)ccc2[nH]1` [Example 192]: the IC50 under setting [1] was 1 to 10 µM.

For `O=C1CCc2cc(CCc3nc(Nc4ccc(Cl)c(Cl)c4)no3)ccc2N1` [Example 194, 6-(2-(3-(3,4-dichlorophenylamino)-1,2,4-oxadiazol-5-yl)ethyl)-3,4-dihydroquinolin-2(1H)-one], the IC50 under setting [2] was above 10 µM.

In the case of `FC(F)(F)Oc1ccc(Nc2noc(CCc3ccc4[nH]nc(C(F)(F)F)c4c3)n2)cc1` [Example 195], the IC50 under setting [1] is above 10 µM.

With `FC(F)Oc1ccc(Nc2noc(CCc3ccc4[nH]nc(C(F)(F)F)c4c3)n2)cc1Cl` [Example 197], under setting [1], the IC50 was above 10 µM.

As for `Clc1ccc(Nc2noc(CCc3ccc4[nH]ncc4c3)n2)cc1Cl` [Example 198], under setting [1], the IC50 was 1 to 10 µM.

On to `O=C1CCc2cc(CCc3nc(Nc4ccc(Cl)c(Cl)c4)no3)ccc2N1` [Example 199], for which the IC50 under setting [1] is above 10 µM.

The values above are taken from US8722670B2, “Selective NR2B antagonists” (Bristol-Myers Squibb Company, priority 2011, dated 2014).
